What all share (type): cell-based
Test [1] deals with human α1H T-type channels (Homo sapiens, UniProt O95180). Kind of test: T-type calcium channel block, whole cell patch clamp, α1H. The following applies: HEK cells stably expressing human α1H; mainly non-inactivated protocol; values above 10,000 nM represented as 10000. The method in brief:
(§1)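 Whole-cell voltage clamp on stably transfected HEK 293 lines carrying human α1H or α1G. Two voltage protocols used: non-inactivated pre-pulse for resting block, inactivated for voltage-dependent block; test agents perfused locally in external solution (0.1-0.01% DMSO) following ~10 min rest.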

Test [2] addresses N-type calcium channel subunits (α1B, α2δ, and β3a) (Homo sapiens, UniProt Q00975). Kind of test: Block of Cav2.2 channel, whole cell voltage clamp, manual and PatchXpress. The following applies: Table 5; table follows Assay Example 3 (whole cell voltage clamp / PatchXpress); assay not given. The method, boiled down: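 Percent block taken as current amplitude ratio with versus without compound, applied in rising doses; IC50 fitted where one cell received multiple doses. Protocol: 50 ms pulses to +20 mV at 0.067 Hz from […] or −90 mV holding; P/n leak subtraction, no junction-potential correction; manual and PatchXpress recordings.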

The target in test [3] is human α1G T-type channels (Homo sapiens, UniProt O43497). Kind of test: T-type calcium channel block, whole cell patch clamp, α1G. The note with it: HEK cells stably expressing human α1G; mainly non-inactivated protocol; values above 10,000 nM represented as 10000. The method, boiled down:
as §1
A general note: Patch clamp records ionic current or voltage across a cell membrane.

N-type calcium channel subunits (α1B, α2δ, and β3a), sequence (Q00975 whole entry): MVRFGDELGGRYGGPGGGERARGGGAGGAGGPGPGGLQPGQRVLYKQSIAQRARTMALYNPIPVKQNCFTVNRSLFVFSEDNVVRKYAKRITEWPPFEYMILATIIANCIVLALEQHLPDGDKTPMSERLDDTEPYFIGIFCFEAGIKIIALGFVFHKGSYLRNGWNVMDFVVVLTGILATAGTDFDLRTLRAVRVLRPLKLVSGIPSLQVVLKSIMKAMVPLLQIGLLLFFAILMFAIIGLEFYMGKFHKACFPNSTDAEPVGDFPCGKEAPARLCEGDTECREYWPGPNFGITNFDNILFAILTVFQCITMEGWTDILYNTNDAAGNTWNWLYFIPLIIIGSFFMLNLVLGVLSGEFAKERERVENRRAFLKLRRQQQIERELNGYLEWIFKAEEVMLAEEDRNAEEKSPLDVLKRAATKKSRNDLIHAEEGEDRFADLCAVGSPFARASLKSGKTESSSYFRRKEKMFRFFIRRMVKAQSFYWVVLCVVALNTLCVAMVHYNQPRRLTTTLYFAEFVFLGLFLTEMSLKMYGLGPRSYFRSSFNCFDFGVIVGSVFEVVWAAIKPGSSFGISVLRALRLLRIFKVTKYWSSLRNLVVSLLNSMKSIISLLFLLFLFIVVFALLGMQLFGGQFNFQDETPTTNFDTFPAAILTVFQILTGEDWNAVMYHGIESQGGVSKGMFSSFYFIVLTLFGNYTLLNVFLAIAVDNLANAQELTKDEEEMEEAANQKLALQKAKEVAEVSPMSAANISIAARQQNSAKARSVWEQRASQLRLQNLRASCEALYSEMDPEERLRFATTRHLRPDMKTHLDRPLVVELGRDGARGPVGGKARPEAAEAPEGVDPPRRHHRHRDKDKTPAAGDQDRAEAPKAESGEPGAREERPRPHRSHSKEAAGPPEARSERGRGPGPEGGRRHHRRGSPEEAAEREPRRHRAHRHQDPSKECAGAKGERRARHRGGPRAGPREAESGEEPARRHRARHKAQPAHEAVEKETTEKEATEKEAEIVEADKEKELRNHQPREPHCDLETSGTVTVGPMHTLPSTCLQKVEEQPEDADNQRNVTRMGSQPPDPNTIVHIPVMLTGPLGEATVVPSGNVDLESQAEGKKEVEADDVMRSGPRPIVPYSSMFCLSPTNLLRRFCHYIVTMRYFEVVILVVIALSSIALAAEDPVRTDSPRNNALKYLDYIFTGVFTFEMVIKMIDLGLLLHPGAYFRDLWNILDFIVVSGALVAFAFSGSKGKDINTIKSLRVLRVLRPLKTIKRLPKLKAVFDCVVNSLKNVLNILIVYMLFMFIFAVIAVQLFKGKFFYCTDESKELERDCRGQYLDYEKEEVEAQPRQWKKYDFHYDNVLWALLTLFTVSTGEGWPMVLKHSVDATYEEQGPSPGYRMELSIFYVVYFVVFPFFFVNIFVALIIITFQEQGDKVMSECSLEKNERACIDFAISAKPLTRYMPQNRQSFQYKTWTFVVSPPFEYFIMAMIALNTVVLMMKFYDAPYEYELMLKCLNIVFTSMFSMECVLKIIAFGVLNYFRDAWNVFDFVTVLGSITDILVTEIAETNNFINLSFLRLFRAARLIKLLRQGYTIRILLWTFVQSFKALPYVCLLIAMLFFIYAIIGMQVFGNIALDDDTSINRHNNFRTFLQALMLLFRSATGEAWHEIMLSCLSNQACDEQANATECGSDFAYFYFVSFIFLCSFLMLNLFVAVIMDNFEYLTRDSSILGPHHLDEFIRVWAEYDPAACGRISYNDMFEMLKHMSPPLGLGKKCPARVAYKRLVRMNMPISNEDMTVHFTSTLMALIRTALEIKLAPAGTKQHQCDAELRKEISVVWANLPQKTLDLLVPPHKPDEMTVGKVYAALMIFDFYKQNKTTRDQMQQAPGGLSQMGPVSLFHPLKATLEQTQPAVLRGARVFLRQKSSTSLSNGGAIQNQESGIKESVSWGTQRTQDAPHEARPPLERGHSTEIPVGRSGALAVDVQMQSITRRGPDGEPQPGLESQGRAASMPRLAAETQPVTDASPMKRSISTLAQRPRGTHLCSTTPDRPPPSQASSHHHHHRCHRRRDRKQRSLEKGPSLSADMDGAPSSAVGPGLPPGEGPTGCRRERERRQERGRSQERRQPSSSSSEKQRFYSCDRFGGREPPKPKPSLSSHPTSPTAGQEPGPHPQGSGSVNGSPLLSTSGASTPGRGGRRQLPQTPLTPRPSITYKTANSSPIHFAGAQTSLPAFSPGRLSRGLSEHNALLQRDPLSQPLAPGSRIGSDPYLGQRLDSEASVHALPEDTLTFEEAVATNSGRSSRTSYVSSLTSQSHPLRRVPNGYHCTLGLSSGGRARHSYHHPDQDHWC
N-type calcium channel subunits (α1B, α2δ, and β3a), sequence (P54289 25-1103 partner): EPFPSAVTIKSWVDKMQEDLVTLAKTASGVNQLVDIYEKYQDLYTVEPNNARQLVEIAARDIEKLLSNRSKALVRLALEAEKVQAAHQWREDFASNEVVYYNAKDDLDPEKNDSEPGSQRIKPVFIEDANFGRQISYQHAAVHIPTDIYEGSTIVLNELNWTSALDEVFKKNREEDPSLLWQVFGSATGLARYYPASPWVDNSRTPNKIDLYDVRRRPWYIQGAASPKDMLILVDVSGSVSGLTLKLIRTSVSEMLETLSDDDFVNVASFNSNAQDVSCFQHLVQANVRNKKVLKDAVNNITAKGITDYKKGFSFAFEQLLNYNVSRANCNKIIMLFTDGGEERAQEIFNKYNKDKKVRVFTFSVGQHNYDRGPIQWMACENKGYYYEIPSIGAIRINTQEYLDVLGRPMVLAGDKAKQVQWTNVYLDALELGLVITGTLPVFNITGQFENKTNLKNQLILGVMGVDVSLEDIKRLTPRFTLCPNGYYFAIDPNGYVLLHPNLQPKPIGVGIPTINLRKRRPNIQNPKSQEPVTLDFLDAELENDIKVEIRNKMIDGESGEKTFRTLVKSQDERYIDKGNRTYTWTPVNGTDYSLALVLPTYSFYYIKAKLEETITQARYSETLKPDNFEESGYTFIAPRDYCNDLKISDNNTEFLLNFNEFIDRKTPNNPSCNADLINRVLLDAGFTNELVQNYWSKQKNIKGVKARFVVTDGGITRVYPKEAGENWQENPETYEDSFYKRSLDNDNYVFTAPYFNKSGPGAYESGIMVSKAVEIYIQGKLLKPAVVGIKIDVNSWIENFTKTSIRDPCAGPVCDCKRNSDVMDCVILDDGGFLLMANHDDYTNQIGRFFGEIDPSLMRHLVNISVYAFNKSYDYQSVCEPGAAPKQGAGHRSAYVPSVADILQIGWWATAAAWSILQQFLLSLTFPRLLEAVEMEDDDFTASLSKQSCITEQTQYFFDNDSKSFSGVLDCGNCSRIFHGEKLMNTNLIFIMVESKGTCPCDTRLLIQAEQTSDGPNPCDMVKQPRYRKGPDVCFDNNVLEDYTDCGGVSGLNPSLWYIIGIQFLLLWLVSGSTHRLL
N-type calcium channel subunits (α1B, α2δ, and β3a), sequence (P54284 whole entry partner): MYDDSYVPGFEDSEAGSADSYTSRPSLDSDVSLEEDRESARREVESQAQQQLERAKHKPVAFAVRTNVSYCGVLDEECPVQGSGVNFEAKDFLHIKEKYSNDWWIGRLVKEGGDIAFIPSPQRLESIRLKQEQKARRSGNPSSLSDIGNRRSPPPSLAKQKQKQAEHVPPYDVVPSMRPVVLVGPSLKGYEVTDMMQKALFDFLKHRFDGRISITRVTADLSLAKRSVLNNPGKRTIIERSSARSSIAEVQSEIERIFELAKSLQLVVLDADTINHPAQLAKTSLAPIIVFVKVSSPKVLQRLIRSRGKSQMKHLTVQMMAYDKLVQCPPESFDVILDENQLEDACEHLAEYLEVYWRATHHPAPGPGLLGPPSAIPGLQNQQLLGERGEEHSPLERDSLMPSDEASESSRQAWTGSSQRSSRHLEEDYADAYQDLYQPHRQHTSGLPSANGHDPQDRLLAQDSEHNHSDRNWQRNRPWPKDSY

For orientation: IC50 means the point on the concentration scale where inhibition reaches its midpoint. Turning to “4-fluoro-N-(4-methyl-4-(3- (trifluoromethyl)phenylsulfonyl) cyclohexyl)-3-(trifluoromethyl) benzamide [Compound 4]”, the half-inhibitory concentration (IC50) in test [1] came out at 6740 nM; in test [2], 140 nM; in test [3], 8540 nM.
For the compound “5-(trifluoromethyl)-N-((1R,4R)-4- ((3- (trifluoromethyl)phenylsulfonyl) methyl)cyclohexyl)picolinamide [Compound 104]”, the half-maximal inhibitory concentration (IC50) in test [1] was greater than 10000 nM; in test [2] it was 840 nM; in test [3] it was greater than 10000 nM.
Consider `CC1(S(=O)(=O)c2cccc(C(F)(F)F)c2)CCC(NC(=O)c2ccc(C(F)(F)F)nc2)CC1` (stereo not drawn) [Compound 1, N-(4-methyl-4-(3-(trifluoromethyl)phenylsulfonyl)cyclohexyl)-6-(trifluoromethyl) nicotinamide], for which the 50% inhibitory concentration (IC50) in test [1] is 7400 nM; in test [2], 1030 nM; in test [3], greater than 10000 nM.
Consider `CC1(S(=O)(=O)c2cccc(C(F)(F)F)c2)CCC(NC(=O)c2cnc(C(F)(F)F)nc2)CC1` (stereo not drawn) [Compound 2, N-(4-methyl-4-(3-(trifluoromethyl)phenylsulfonyl)cyclohexyl)-2-(trifluoromethyl) pyrimidine-5-carboxamide], for which the IC50 in test [1] came out at 1170 nM; in test [2], 950 nM; in test [3], 1380 nM.
For `Cn1nc(C(F)(F)F)cc1C(=O)NC1CCC(C)(S(=O)(=O)c2cccc(C(F)(F)F)c2)CC1` (stereo not drawn) [Compound 6, 1-methyl-N-(4-methyl-4-(3-(trifluoromethyl)phenylsulfonyl)cyclohexyl)-3-(trifluoromethyl)-1H-pyrazole-5-carboxamide], the 50% inhibitory concentration (IC50) in test [1] was greater than 10000 nM; in test [2], 330 nM; in test [3] it was greater than 10000 nM.
Turning to `CC1(S(=O)(=O)c2cccc(C(F)(F)F)c2)CCC(NC(=O)c2ccn(CC(F)(F)F)n2)CC1` (stereo not drawn) [Compound 7, N-(4-methyl-4-(3-(trifluoromethyl)phenylsulfonyl)cyclohexyl)-l-(2,2,2-trifluoroethyl)-1H-pyrazole-3-carboxamide], the concentration for half-maximal inhibition (IC50) was greater than 10000 nM in test [1], 1580 nM in test [2] and greater than 10000 nM in test [3].
On to `O=C(NC1CCC(S(=O)(=O)c2cccc(C(F)(F)F)c2)CC1)c1ccc(C(F)(F)F)nc1` (stereo not drawn) [Compound 8, 6-(trifluoromethyl)-N-(4-(3-(trifluoromethyl)phenylsulfonyl)cyclohexyl)nicotinamide], for which the results for the concentration for half-maximal inhibition (IC50) in test [1], in test [2] and in test [3] were 6710 nM, 2300 nM and greater than 10000 nM, respectively.
The matching figures for `O=C(NC1CCC(S(=O)(=O)c2cccc(C(F)(F)F)c2)CC1)c1cnc(C(F)(F)F)nc1` (stereo not drawn) [Compound 9, 2-(trifluoromethyl)-N-(4-(3-(trifluoromethyl)phenylsulfonyl)cyclohexyl)pyrimidine-5-carboxamide]: 1030 nM, 2520 nM and 1130 nM.
With `O=C(NC1CCC(S(=O)(=O)c2cccc(C(F)(F)F)c2)CC1)c1ccc(C(F)(F)F)cn1` (stereo not drawn) [Compound 10, 5-(trifluoromethyl)-N-(4-(3-(trifluoromethyl)phenylsulfonyl)cyclohexyl)picolinamide], the half-maximal inhibitory concentration (IC50) worked out at 3820 nM in test [1], 1460 nM in test [2] and 4200 nM in test [3].
Take `O=C(NC1CCC(S(=O)(=O)c2cccc(C(F)(F)F)c2)CC1)c1ccc(F)c(C(F)(F)F)c1` (stereo not drawn) [Compound 11, 4-fluoro-3-(trifluoromethyl)-N-(4-(3-(trifluoromethyl)phenylsulfonyl)cyclohexyl)benzamide]: the IC50 was greater than 10000 nM in test [1], 150 nM in test [2] and greater than 10000 nM in test [3].
`Cn1nc(C(F)(F)F)cc1C(=O)NC1CCC(S(=O)(=O)c2cccc(C(F)(F)F)c2)CC1` (stereo not drawn) [Compound 13, 1-methyl-3-(trifluoromethyl)-N-(4-(3-(trifluoromethyl)phenylsulfonyl)cyclohexyl)-1H-pyrazole-5-carboxamide]: the half-inhibitory concentration (IC50) in test [1] is greater than 10000 nM; in test [2], 690 nM; in test [3] it was greater than 10000 nM.
Turning to `O=C(NC1CCC(S(=O)(=O)c2cccc(C(F)(F)F)c2)CC1)c1ccn(CC(F)(F)F)n1` (stereo not drawn) [Compound 14, 1-(2,2,2-trifluoroethyl)-N-(4-(3-(trifluoromethyl)phenylsulfonyl)cyclohexyl)-1H-pyrazole-3-carboxamide], the IC50 in test [1] is 330 nM; in test [2] it was 2210 nM; in test [3], 1320 nM.
Regarding `CC(C)(C)NC(=O)CNC1CCC(C)(S(=O)(=O)c2cccc(C(F)(F)F)c2)CC1` (stereo not drawn) [Compound 15, N-tert-butyl-2-(4-methyl-4-(3-(trifluoromethyl)phenylsulfonyl)cyclohexylamino)acetamide], the IC50 in test [1] is 4620 nM; in test [2], 50 nM; in test [3] it was greater than 10000 nM.
Regarding `CC(C)(C)NC(=O)CNC1CCC(S(=O)(=O)c2cccc(C(F)(F)F)c2)CC1` (stereo not drawn) [Compound 16, N-tert-butyl-2-(4-(3-(trifluoromethyl)phenylsulfonyl)cyclohexylamino)acetamide], the IC50 in test [1] was 9180 nM; in test [2], 140 nM; in test [3] it was greater than 10000 nM.
Consider `CC1(S(=O)(=O)c2cccc(C(F)(F)F)c2)CCC(NC(=O)CNC2CCCCC2)CC1` (stereo not drawn) [Compound 17, 2-(cyclohexylamino)-N-(4-methyl-4-(3-(trifluoromethyl)phenylsulfonyl)cyclohexyl)acetamide], for which the IC50 in test [1] turned out to be 1420 nM; in test [2], 260 nM; in test [3], 2330 nM.
Consider `CC1(S(=O)(=O)c2cccc(C(F)(F)F)c2)CCN(C(=O)CNC2CCCCC2)CC1` [Compound 18, 2-(cyclohexylamino)-l-(4-methyl-4-(3-(trifluoromethyl)phenylsulfonyl)piperidin-l-yl)ethanone], for which the IC50 stood at 2720 nM in test [1], 390 nM in test [2] and 3060 nM in test [3].
With `CC1(S(=O)(=O)c2cccc(C(F)(F)F)c2)CCC(NC(=O)c2cc(F)cc(Cl)c2)CC1` (stereo not drawn) [Compound 19, 3-chloro-5-fluoro-N-(4-methyl-4-(3-(trifluoromethyl)phenylsulfonyl)cyclohexyl)benzamide], the IC50 in test [1] stood at 3020 nM; in test [2] it was 60 nM; in test [3] it was 5240 nM.
For the compound `COc1cc(F)cc(C(=O)NC2CCC(C)(S(=O)(=O)c3cccc(C(F)(F)F)c3)CC2)c1` (stereo not drawn) [Compound 20, 3-fluoro-5-methoxy-N-(4-methyl-4-(3-(trifluoromethyl)phenylsulfonyl)cyclohexyl)benzamide], the figures for the concentration for half-maximal inhibition (IC50) in test [1], in test [2] and in test [3] were 1380 nM, 70 nM and 1970 nM, respectively.
Take `CC1(S(=O)(=O)c2cccc(C(F)(F)F)c2)CCC(NC(=O)c2cc(C(F)(F)F)ccn2)CC1` (stereo not drawn) [Compound 21, N-(4-methyl-4-(3-(trifluoromethyl)phenylsulfonyl)cyclohexyl)-4-(trifluoromethyl)picolinamide]: the IC50 in test [1] was 4020 nM; in test [2] it was 200 nM; in test [3], 6560 nM.
For `CN(C(=O)CNC1CCC(S(=O)(=O)c2cccc(C(F)(F)F)c2)CC1)C(C)(C)C` (stereo not drawn) [Compound 23, N-tert-butyl-N-methyl-2-(4-(3-(trifluoromethyl)phenylsulfonyl)cyclohexylamino)acetamide], in that order: 1190 nM, 240 nM and 2790 nM.
The matching figures for `COc1cc(F)cc(C(=O)NC2CCC(S(=O)(=O)c3cccc(C(F)(F)F)c3)CC2)c1` (stereo not drawn) [Compound 25, 3-fluoro-5-methoxy-N-(4-(3-(trifluoromethyl)phenylsulfonyl)cyclohexyl)benzamide]: 4660 nM, 360 nM and 2790 nM.
For `O=C(NC1CCC(S(=O)(=O)c2cccc(C(F)(F)F)c2)CC1)c1cc(F)cc(Cl)c1` (stereo not drawn) [Compound 26, 3-chloro-5-fluoro-N-(4-(3-(trifluoromethyl)phenylsulfonyl)cyclohexyl)benzamide], in that order: greater than 10000 nM, 210 nM and 2790 nM.
Consider `CC(C)(C)NC(=O)CN[C@H]1CC[C@@](F)(S(=O)(=O)c2cccc(C(F)(F)F)c2)CC1` [Compound 27, N-tert-butyl-2-((1S,4S)-4-fluoro-4-(3-(trifluoromethyl)phenylsulfonyl)cyclohexylamino)acetamide], for which the IC50 was 720 nM in test [1], 250 nM in test [2] and 760 nM in test [3].
For the compound `CC(C)(C)NC(=O)CN[C@H]1CC[C@](F)(S(=O)(=O)c2cccc(C(F)(F)F)c2)CC1` [Compound 28, N-tert-butyl-2-((1R,4R)-4-fluoro-4-(3-(trifluoromethyl)phenylsulfonyl)cyclohexylamino)acetamide], the results for the IC50 in test [1], in test [2] and in test [3] were 1270 nM, 940 nM and 1230 nM, respectively.
Regarding `O=C(NC[C@H]1CC[C@@H](S(=O)(=O)c2cccc(C(F)(F)F)c2)CC1)c1cc(F)cc(Cl)c1` [Compound 29, 3-chloro-5-fluoro-N-(((1S,4S)-4-(3-(trifluoromethyl)phenylsulfonyl)cyclohexyl)methyl)benzamide], the IC50 in test [1] is 430 nM; in test [2] it was 610 nM; in test [3], 260 nM.
Consider `COc1cc(F)cc(C(=O)NC[C@H]2CC[C@@H](S(=O)(=O)c3cccc(C(F)(F)F)c3)CC2)c1` [Compound 30, 3-fluoro-5-methoxy-N-(((1S,4S)-4-(3-(trifluoromethyl)phenylsulfonyl)cyclohexyl)methyl)benzamide], for which the values for the concentration for half-maximal inhibition (IC50) in test [1], in test [2] and in test [3] were 1410 nM, 720 nM and 1290 nM, respectively.

The values are drawn from patent publication US20120245137A1 (Zalicus Pharmaceuticals Ltd., priority 2009, published 2012).
